This is an account of results in ChEMBL document CHEMBL5518171, “Curcumin hybrid molecules for the treatment of Alzheimer's disease: Structure and pharmacological activities” (Eur J Med Chem, 2024).

Test [1] is described as follows: Neuroprotective activity against human MC65 cells assessed as increase in cell viability incubated for 72 hrs in absence of tetracycline by MTT assay. The class given is functional, cell-based. The note with it: MC65, 72 h.
A further test relates to N2a. Briefly: Antiproliferative activity against mouse Neuro2a cells assessed as reduction in cell viability incubated for 72 hrs by MTT assay. The class given is functional, cell-based.
Test [2] is described as follows: Antioxidant activity assessed as DPPH radical scavenging activity st 80 uM incubated for 1 hr by DPPH assay. The class given is functional.
Another test relates to SH-SY5Y. Description: Antioxidant activity in human SH-SY5Y cells assessed as increase in intracellular GSH level at 10 uM incubated for 24 hrs by […] staining based fluorescence analysis. Format: functional.
Test [3] can be described thus: Antioxidant activity assessed as DPPH radical scavenging activity at 80 uM incubated for 1 hr by DPPH assay relative to control. The class given is functional.
Test [4] concerns the target Cholinesterase (Equus caballus) (UniProt P81908). Briefly: Inhibition of equine BChE at 100 uM by Ellman's method relative to control.
For test [5], the target named is T1, Amine oxidase [flavin-containing] B (Homo sapiens, UniProt P27338).
T1 sequence (P27338 whole entry): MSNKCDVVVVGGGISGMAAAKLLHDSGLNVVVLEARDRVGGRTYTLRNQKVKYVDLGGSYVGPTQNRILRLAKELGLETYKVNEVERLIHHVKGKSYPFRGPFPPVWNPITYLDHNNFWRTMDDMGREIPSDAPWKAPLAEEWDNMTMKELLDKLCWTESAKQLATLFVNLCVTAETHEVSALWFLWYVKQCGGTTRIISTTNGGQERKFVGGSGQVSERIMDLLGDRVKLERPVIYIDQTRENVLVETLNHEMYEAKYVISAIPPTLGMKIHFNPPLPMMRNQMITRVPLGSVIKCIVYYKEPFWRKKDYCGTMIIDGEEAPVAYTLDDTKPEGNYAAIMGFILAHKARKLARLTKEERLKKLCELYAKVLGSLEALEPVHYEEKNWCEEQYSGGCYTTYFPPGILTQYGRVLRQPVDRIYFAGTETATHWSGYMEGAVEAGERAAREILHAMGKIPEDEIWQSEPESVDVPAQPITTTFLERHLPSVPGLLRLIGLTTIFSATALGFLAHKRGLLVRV
Briefly: Inhibition of human MAO-B using p-tyramine as substrate at 100 uM incubated for 15 mins by Amplex red and horseradish peroxidase based fluorescence assay. To be noted: 0.25 h.

The target in test [6] is T2, Amine oxidase [flavin-containing] A (Homo sapiens, UniProt P21397).
T2 sequence (P21397 whole entry): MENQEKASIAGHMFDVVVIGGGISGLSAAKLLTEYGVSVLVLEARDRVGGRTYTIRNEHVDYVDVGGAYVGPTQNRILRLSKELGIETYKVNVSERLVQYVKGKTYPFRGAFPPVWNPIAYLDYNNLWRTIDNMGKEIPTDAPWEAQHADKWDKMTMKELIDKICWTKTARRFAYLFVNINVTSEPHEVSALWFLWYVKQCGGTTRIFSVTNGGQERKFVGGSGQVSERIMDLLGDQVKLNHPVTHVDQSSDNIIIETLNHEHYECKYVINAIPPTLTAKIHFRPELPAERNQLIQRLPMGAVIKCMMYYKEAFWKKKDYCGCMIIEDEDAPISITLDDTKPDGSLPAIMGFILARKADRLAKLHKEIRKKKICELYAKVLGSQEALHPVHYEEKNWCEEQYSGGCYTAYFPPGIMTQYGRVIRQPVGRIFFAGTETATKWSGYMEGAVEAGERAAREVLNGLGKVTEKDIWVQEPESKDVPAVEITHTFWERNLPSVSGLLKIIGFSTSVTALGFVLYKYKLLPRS
Description: Inhibition of human MAO-A using p-tyramine as substrate at 100 uM incubated for 15 mins by Amplex red and horseradish peroxidase based fluorescence assay relative to control. The note with it: 0.25 h.

The target in a further test is Cholinesterase (Equus caballus, UniProt P81908). Briefly: Inhibition of equine BChE using BTCh as substrate incubated for 5 mins by Ellmans method.
Cholinesterase, sequence (P81908 whole entry): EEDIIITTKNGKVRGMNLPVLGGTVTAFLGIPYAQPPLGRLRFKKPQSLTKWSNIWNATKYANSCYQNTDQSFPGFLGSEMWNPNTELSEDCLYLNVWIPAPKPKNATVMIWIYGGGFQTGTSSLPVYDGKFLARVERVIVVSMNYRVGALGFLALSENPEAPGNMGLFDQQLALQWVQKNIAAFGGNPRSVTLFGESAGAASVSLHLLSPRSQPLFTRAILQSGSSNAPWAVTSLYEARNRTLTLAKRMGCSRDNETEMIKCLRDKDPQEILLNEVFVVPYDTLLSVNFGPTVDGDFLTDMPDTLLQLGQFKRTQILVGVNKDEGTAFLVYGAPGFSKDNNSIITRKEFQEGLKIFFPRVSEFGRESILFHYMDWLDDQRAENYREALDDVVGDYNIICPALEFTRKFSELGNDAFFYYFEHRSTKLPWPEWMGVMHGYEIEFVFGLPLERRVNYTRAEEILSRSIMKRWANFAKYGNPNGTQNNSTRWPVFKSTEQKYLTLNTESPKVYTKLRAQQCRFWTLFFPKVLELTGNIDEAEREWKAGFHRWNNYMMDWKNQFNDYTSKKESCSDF
The target in a further test is Acetylcholinesterase (Electrophorus electricus, UniProt O42275).
Acetylcholinesterase, sequence (O42275 whole entry): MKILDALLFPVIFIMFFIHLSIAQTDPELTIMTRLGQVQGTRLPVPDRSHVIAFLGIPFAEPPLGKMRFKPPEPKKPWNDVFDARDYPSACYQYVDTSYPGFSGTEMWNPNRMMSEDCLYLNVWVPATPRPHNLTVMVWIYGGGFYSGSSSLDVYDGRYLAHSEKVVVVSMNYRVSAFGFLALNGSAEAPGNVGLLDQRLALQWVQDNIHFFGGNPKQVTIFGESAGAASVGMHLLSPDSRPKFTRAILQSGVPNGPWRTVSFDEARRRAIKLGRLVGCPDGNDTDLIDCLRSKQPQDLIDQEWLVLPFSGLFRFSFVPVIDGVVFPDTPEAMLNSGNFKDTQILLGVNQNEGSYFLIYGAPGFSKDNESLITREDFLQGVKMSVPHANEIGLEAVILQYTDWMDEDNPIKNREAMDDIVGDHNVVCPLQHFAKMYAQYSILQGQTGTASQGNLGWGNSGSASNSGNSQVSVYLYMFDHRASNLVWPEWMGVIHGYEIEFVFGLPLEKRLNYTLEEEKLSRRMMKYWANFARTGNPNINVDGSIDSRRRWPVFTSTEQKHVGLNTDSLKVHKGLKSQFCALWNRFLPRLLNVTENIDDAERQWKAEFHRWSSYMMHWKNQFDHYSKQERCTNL
A short description of test [7]: Antioxidant activity assessed as DPPH radical scavenging activity measured after 30 mins by UV-visible spectrophotometric analysis. The class given is functional.
Test [8] in a line: Antioxidant activity assessed as DPPH radical scavenging activity by spectrophotometric analysis. The class given is functional.
Test [9] in a line: Antioxidant activity assessed as ROS scavenging activity. The class given is functional.

Cholinesterase (Equus caballus), sequence (P81908 whole entry): as the sequence (P81908 whole entry) above
Description for Acetylcholinesterase: Inhibition of Electric eel AChE using acetylthiocholine iodide as substrate incubated for 15 mins by Ellman's method

As to `COc1ccc2[nH]cc(CCNC(=O)CC(=O)/C=C/c3ccc(O)cc3)c2c1`, in [1], the half-maximal effective concentration (EC50) worked out at 23.1 nM. Take `COc1ccc(/C=C/C(=O)CCCCN2CC[C@@]34C=C[C@H](O)C[C@@H]3Oc3c(OC)ccc(c34)C2)cc1`: the IC50 with N2a was found to be 50000 nM. As to `COc1cc(/C=C/C(=O)NN=C2CCN(Cc3ccccc3)CC2)ccc1O`, the figures for the Activity (in test [2]; in the test on SH-SY5Y; in test [3]) were 53.4%, 34% and 53.4%, respectively. In test [4], `O=C(/C=C/c1cc(O)c(O)cc1O)CC(=O)/C=C/c1cc2ccc(O)c(O)c2oc1=O` yielded an inhibition of 43.3%. Besides, the figures for the inhibition at 100 µM in test [5] and in test [6] were 45.8% and 60.9%, respectively.

As to `COc1ccc2[nH]cc(CCNC(=O)CC(=O)/C=C/c3ccc(O)c(OC)c3)c2c1`, in [1], the EC50 came to 134 nM.

On to `COc1cc(/C=C/C(=O)OCCCCCN(C)Cc2cccc(OC(=O)N(C)C)c2)ccc1O`, for which the IC50 was found to be 590 nM at Cholinesterase and 19.7 nM against Acetylcholinesterase.

In the case of `CCCCN1C(=O)/C(=C(O)/C=C/c2cc(OC)c(OC)c(OC)c2)C(C(=O)OC)=C1C`, the Activity in test [7] came out at 10.8%. Turning to `CCCCN1C(=O)/C(=C(O)/C=C/c2ccc(O)c(OC)c2)C(C(=O)OC)=C1C`, the Activity in test [8] came to 8.87%. With `CCCCN1C(=O)/C(=C(O)/C=C/c2cc(OC)c(OC)c(OC)c2)C(C(=O)OCC)=C1C`, in [9], the Activity turned out to be 61%. On to `O=C(/C=C/c1ccc(O)c(O)c1)NN=C1CCN(Cc2ccccc2)CC1`, for which the figures for the Activity (in test [2]; with SH-SY5Y; in [3]) were 45%, 33% and 45%, respectively.
